Test results taken from ChEMBL document CHEMBL1143548, “Synthesis and evaluation of potential inhibitors of eIF4E cap binding to 7-methyl GTP” (Bioorg Med Chem Lett, 2005).

Each compound was assayed against Eukaryotic translation initiation factor 4E (Homo sapiens, UniProt P06730) (assay: Inhibitory concentration against 7-methyl-GTP binding to eukaryotic translation initiation factor 4E).
Sequence of Eukaryotic translation initiation factor 4E (P06730 whole entry): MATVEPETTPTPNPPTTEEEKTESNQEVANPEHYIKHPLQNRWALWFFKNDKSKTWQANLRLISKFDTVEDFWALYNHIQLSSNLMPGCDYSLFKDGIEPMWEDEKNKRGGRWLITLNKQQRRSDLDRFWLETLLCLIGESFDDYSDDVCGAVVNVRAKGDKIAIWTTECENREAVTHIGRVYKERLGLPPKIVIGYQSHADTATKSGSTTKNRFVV

Point of comparison: `CC[n+]1cn([C@@H]2O[C@H](COP(=O)([O-])O)C(O)[C@H]2O)c2nc(N)[nH]c(=O)c21` (single isomer, unassigned), IC50 100 µM. Against it:
- Cn1cnc2c(c1=O)[n+](C)cn2[C@@H]1O[C@H](CO)[C@@H](O)[C@H]1O — higher, > 400 µM
- C[n+]1cn([C@H]2CC(O)[C@@H](COP(=O)(O)OP(=O)([O-])OP(=O)(O)O)O2)c2nc(N)[nH]c(=O)c21 (single isomer, unassigned) — 25-fold lower, 4 µM
- Nc1nc2c(c(=O)[nH]1)[n+](Cc1ccccc1)cn2[C@@H]1O[C@H](CO[PH](=O)[O-])[C@@H](O)[C@H]1O — 2-fold higher, 200 µM
- C[n+]1cn([C@@H]2O[C@H](CO)C(O)[C@H]2O)c2nc(N)[nH]c(=O)c21 (single isomer, unassigned) — higher, > 400 µM
- C[n+]1cn([C@@H]2O[C@H](CO)[C@@H](O)[C@H]2O)c2nc(N)nc([S-])c21 — higher, > 400 µM
- CN(C)c1nc2c(ccn2[C@@H]2O[C@H](CO)C(O)[C@H]2O)c(=O)[nH]1 (single isomer, unassigned) — higher, > 400 µM
- C=CC[n+]1cn([C@@H]2O[C@H](COP(=O)([O-])O)C(O)[C@H]2O)c2nc(N)[nH]c(=O)c21 (single isomer, unassigned) — 2.2-fold higher, 220 µM
- Nc1nc2c(ncn2[C@@H]2O[C@H](CO[PH](=O)O)C(O)[C@H]2O)c(=O)[nH]1 (single isomer, unassigned) — within 1.5-fold, 130 µM
- CNc1nc2c(ncn2[C@@H]2O[C@H](CO)C(O)[C@H]2O)c(=O)[nH]1 (single isomer, unassigned) — higher, > 400 µM
- Cc1ccc(SNc2nc3c(ncn3[C@@H]3O[C@H](CO)C(O)[C@H]3O)c(=O)[nH]2)cc1 (single isomer, unassigned) — higher, > 400 µM
